Experiments:
Assay in all cases: Anti-SARS-CoV-2 activity against VOCs, WST-8 assay in VeroE6 cells
Format in all cases: cell-based
Conditions in all cases: one range stated for beta, gamma and omicron
[1] = tested on: SARS-CoV-2^929 (Omicron)
[2] = tested on: SARS-CoV-2^TY7 (Gamma)
[3] = tested on: SARS-CoV-2^TY8 (Beta)

CC(C)(C)[C@H](NC(=O)C(Cl)(Cl)Cl)C(=O)N1C[C@H]2[C@@H]([C@H]1C(=O)N[C@H](C#N)C[C@@H]1CCCNC1=O)C2(C)C [Compound 5f, (1R,2S,5S)-N-((S)-1-Cyano-2-((S)-2-oxopiperidin-3-yl)ethyl)-3-((S)-3,3-dimethyl-2-(2,2,2-trichloroacetamido)butanoyl)-6,6-dimethyl-3-azabicyclo[3.1.0]hexane-2-carboxamide]
3–5 fold: loss of antiviral activity against omicron variant [1] | loss of antiviral activity against gamma variant [2] | loss of antiviral activity against beta variant [3]
